In data set [1] the test system is PSMA-positive PC3-pip xenografts. Put plainly: Biodistribution in PC3-pip tumor-bearing mice. The conditions noted are these: 40 pmol/mouse. As to the method: All in vivo experiments were carried out on BALB/c nu/nu or NMRI mice purchased from Scanbur A/S (Sollentuna, Sweden). All animal studies were approved by the Ethics Committee for Animal Research in Uppsala (Sweden), following the national legislation on the protection of laboratory animals (permit 5.8.18-00473/2021, approved 26 February 2021). Prostate cancer xenografts expressing PSMA were established in BALB/c nu/nu mice via subcutaneous injection of PC3-pip cell suspension in PBS (10^7 cells/animal in 100 µL). For in vivo specificity control, 10^7 cells/animal PSMA-negative SKOV-3 or PC-3 cells were implanted. […] Four mice per data point were used in in vivo experiments; two mice per data point were used in SPECT/CT (^99mTc-labeled BQ0413) and PET/CT (^68Ga-labeled PSMA-11) imaging experiments.
Each mouse was intravenously injected with 40 pmol of [^99mTc]Tc-BQ0413 (60 kBq; mass of injected compound was adjusted with unlabeled tracer). The mice were euthanized after lethal intraperitoneal injection of ketamine/xylazine followed by exsanguination 1, 3, and 6 h pi. The organs of interest were collected, weighed, and measured for their activity content using the gamma counter. The uptake activity in organs was calculated as the percentage of injected activity per gram (%IA/g) for blood, salivary gland, lungs, liver, spleen, pancreas, stomach, small intestine, kidneys, tumor, muscle, and bone tissue and as %IA for the remaining carcass and the rest of the intestines with content.
Animals were euthanized, organs were collected, and activity uptake was measured according to the protocol described above.

The next data set concerns the target PSMA. As to conditions: read-out: Equilibrium Dissociation Constant, KD; cited from earlier work.

Take `O=C([O-])CN(CCN(CC(=O)[O-])Cc1cc(CCC(=O)NCCCCCC(=O)NCCCC[C@H](NC(=O)N[C@@H](CCC(=O)O)C(=O)O)C(=O)O)ccc1[O-])Cc1cc(CCC(=O)O)ccc1[O-].[68Ga+3].[OH3+]` [[^68Ga]Ga-PSMA-11]: in data set [1] (1 h pi), the “Activity in GI tract (with content)” value came to 1.6 ± 0.3 %IA/sample, the Tumor-to-blood ratio is listed as 26 ± 9, the Tumor-to-bone ratio is reported as 34 ± 7 and the Tumor-to-kidneys ratio is 0.09 ± 0.02. In data set [1] (1 h pi), the Tumor-to-liver ratio was 30 ± 14, the Tumor-to-lungs ratio came out at 7 ± 2, the Tumor-to-muscle ratio is on record as 38 ± 11 and the Tumor-to-pancreas ratio stood at 15 ± 3. In data set [1] (1 h pi), the Tumor-to-salivary gland ratio is recorded as 5 ± 1, the Tumor-to-small intestine ratio is on record as 42 ± 14, the Tumor-to-spleen ratio is 0.7 ± 0.2 and the Tumor-to-stomach ratio is 29 ± 11. In data set [1] (1 h pi), this molecule yielded an Uptake in blood of 0.8 ± 0.1 %IA/g, an Uptake in bone of 0.60 ± 0.06 %IA/g, an Uptake in kidneys of 226 ± 40 %IA/g and an Uptake in liver of 0.7 ± 0.2 %IA/g. In addition, in data set [1] (1 h pi), the Uptake in lungs is given as 3.2 ± 0.6 %IA/g, the Uptake in muscle was 0.54 ± 0.08 %IA/g, the Uptake in pancreas was found to be 1.3 ± 0.2 %IA/g and the “Uptake in salivary gland” value was 4.4 ± 0.8 %IA/g. Besides, in data set [1] (1 h pi), the “Uptake in small intestine” value was 0.5 ± 0.1 %IA/g, the Uptake in spleen came to 28 ± 4 %IA/g, the Uptake in stomach is 0.8 ± 0.3 %IA/g and the Uptake in tumor came out at 20 ± 3 %IA/g. The same molecule came in with an Uptake in tumor in data set [1] (3 h pi) of 20 ± 3 %IA/g. Moreover, the Kd at PSMA was 500 ± 200 pM.

[^177Lu]Lu-PSMA-617: the Kd on PSMA was 240 pM.
